Results reported in PubChem BioAssay (NCI).
“And” between values parts separate entries of the source, which are not always exact repeats. Identical values can stand only once.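 Compound exposure: 48 hours, 5 concentrations, 96-well plates. GI50: concentration for 50% inhibition of growth. TGI: total growth inhibition.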

Legend:
Assay in all cases: NCI anticancer screen, dose series, 48 h
CAKI-1 renal = system: CAKI-1 renal
IGROV1 ovarian = system: IGROV1 ovarian
HS 578T breast = system: HS 578T breast
TK-10 renal = system: TK-10 renal
HCT-116 colon = system: HCT-116 colon
HCC-2998 colon = system: HCC-2998 colon
786-0 renal = system: 786-0 renal
MOLT-4 leukemia = system: MOLT-4 leukemia

SMILES | GI50 (CAKI-1 renal) [µM] | TGI (CAKI-1 renal) | GI50 (IGROV1 ovarian) [µM] | TGI (IGROV1 ovarian) | GI50 (HS 578T breast) [µM] | TGI (HS 578T breast) | GI50 (TK-10 renal) [µM] | TGI (TK-10 renal) | GI50 (HCT-116 colon) [µM] | TGI (HCT-116 colon) | GI50 (HCC-2998 colon) [µM] | TGI (HCC-2998 colon) | GI50 (786-0 renal) [µM] | TGI (786-0 renal) | GI50 (MOLT-4 leukemia) [µM] | TGI (MOLT-4 leukemia)
Nc1ccc(C#Cc2cncnc2Nc2ccc(OCc3cccc(F)c3)c(Cl)c2)cc1 | 5.87 | > 25 µM | 4.93 | > 25 µM | 6.07 | 24.2 µM | 3.58 | > 25 µM | 10.6 | > 25 µM | 11.1 | > 25 µM | 17.4 | > 25 µM | 19.5 | > 25 µM
C(CCc1nnc2c(n1)CCCC2)Cc1nnc2c(n1)CCCC2 |  | > 100 µM |  | > 100 µM |  | > 100 µM |  | > 100 µM |  | > 100 µM |  | > 100 µM |  | > 100 µM |  | > 100 µM
COC(=O)c1ccc(=O)c2nc3/c(=C/O)c(O)cc(=O)c3[nH]c12 | 0.581 | 12.8 µM and 12.6 µM | 0.469 | 3.31 µM and 17.5 µM | 0.301 | 23 µM and 20.1 µM | 1.3 | 21.1 µM and 17.5 µM | 0.321 | 14.6 µM and 11.8 µM | 2.94 | 25 µM and 18.9 µM | 1.52 | 23.8 µM and 17.9 µM | 0.562 | 12.1 µM and > 60.8 µM
O=c1cccc(C#Cc2ccccc2)o1 | 5.05 | 15.3 µM | 9.58 | > 87.3 µM | 6.5 | 25.9 µM | 6.06 | 22.7 µM | 2.8 | 26.2 µM |  |  | 2.2 | 15 µM | 2.77 | 
Nc1nc2ccc([C@@H]3Nc4ccc5[nH]ncc5c4[C@H]4[C@H]5CCC(C5)[C@H]43)cc2s1 | 0.791 | 3.34 µM | 1 | 9.84 µM | 1.39 | 4.4 µM | 2.73 | 8.98 µM | 0.488 | 1.84 µM | 1.75 | 3.76 µM | 1.4 | 10 µM | 0.632 | 3.05 µM
O=C1/C(=C/c2ccccc2)SC(=Nc2ccccc2)N1Nc1ccccc1 | 13.7 | > 100 µM | 12.7 | > 100 µM | 29 | > 100 µM | 36.5 | > 100 µM | 4.49 | > 100 µM | 20 | > 100 µM | 6.57 | > 100 µM | 5.14 | > 100 µM
COc1ccc(-c2cnc(-c3ccc(F)cc3)[nH]2)cc1 | 1.82 | 5.57 µM | 6.58 | 12.7 µM | 2.14 | 11.2 µM | 2.58 | 8.81 µM | 1.36 | 3.39 µM | 7.4 | 25.1 µM | 6.14 | 12.3 µM | 10.5 | 49.6 µM
COC(=O)c1c2c(c(C)[n+]([O-])c1C)C(=O)C=C(NCc1cccc(OC)c1)C2=O | 0.696 | 2.22 µM | 0.579 | 2.18 µM | 1.64 | 6.25 µM |  |  |  |  |  |  | 1.88 | 4.85 µM | 1.09 | 3.54 µM
